Results taken from ChEMBL document CHEMBL5241072, “Overview of piperlongumine analogues and their therapeutic potential” (Eur J Med Chem, 2021).
pIC50: −log10 of the molar value.

What was measured:
A549 = test: Antiproliferative activity against human A549 cells assessed as cell growth inhibition; format: functional, cell-based
Oryctolagus cuniculus [1] = organism: Oryctolagus cuniculus; test: Antiplatelet activity in rabbit plasma assessed as inhibition of arachidonic acid induced platelet aggregation by microplate reader analysis; format: functional
Oryctolagus cuniculus [2] = organism: Oryctolagus cuniculus; test: Antiplatelet activity in rabbit plasma assessed as inhibition of ADP induced platelet aggregation by microplate reader analysis; format: functional
K562 = test: Antiproliferative activity against human K562 cells assessed as cell growth inhibition; format: functional, cell-based
MDA-MB-231 [3] = test: Antiproliferative activity against human MDA-MB-231 cells assessed as cell growth inhibition; format: functional, cell-based
[4] = Antiproliferative activity against human NCI-H660 cells assessed as cell growth inhibition; format: functional, cell-based
NSCLC = test: Cytotoxicity against human NSCLC cells assessed as cell growth inhibition; format: functional, cell-based
HL-60 [5] = test: Antiproliferative activity against human HL-60 cells assessed as cell growth inhibition; format: functional, cell-based
HCT-8 [6] = test: Antiproliferative activity against human HCT-8 cells assessed as cell growth inhibition; format: functional, cell-based
MKN-45 = test: Antiproliferative activity against human MKN-45 cells assessed as cell growth inhibition; format: functional, cell-based
MOLT-4 = test: Antiproliferative activity against human MOLT-4 cells assessed as cell growth inhibition; format: functional, cell-based
[7] = Antiproliferative activity against human OCSL cell assessed as cell growth inhibition; format: functional, cell-based
MCF7 = test: Antiproliferative activity against human MCF7 cells assessed as cell growth inhibition; format: functional, cell-based
P388 = test: Antiproliferative activity against mouse P388 cells assessed as cell growth inhibition; format: functional, cell-based
8-MG-BA = test: Antiproliferative activity against human 8-MG-BA cells assessed as cell growth inhibition; format: functional, cell-based
[8] = Antiproliferative activity against human OC2 cells assessed as cell growth inhibition; format: functional, cell-based
CCRF-CEM = test: Antiproliferative activity against human CEM cells assessed as cell growth inhibition; format: functional, cell-based
PC-3 = test: Antiproliferative activity against human PC-3 cells assessed as cell growth inhibition; format: functional, cell-based
DU-145 = test: Antiproliferative activity against human DU-145 cells assessed as cell growth inhibition; format: functional, cell-based
LN-229 = test: Antiproliferative activity against human LN-229 cells assessed as cell growth inhibition; format: functional, cell-based
Jurkat = test: Antiproliferative activity against human Jurkat cells assessed as cell growth inhibition; format: functional, cell-based
20S proteasome = test: Inhibition of human 20S proteasome; format: protein-complex assay
[9] = Inhibition of TrxR in human MDA-MB-231 cells; format: cell-based
HT-29 = test: Antiproliferative activity against human HT-29 cells assessed as cell growth inhibition; format: functional, cell-based
HGC-27 [10] = test: Antiproliferative activity against human HGC-27 cells assessed as cell growth inhibition; format: functional, cell-based
KB = test: Antiproliferative activity against human KB cells assessed as cell growth inhibition; format: functional
AGS = test: Antiproliferative activity against human AGS cells assessed as cell growth inhibition; format: functional, cell-based
[11] = Antiproliferative activity against human A875 cells assessed as cell growth inhibition; format: functional, cell-based
[12] = Antiproliferative activity against human U87 cells assessed as cell growth inhibition; format: functional, cell-based, U-87MG ATCC; conditions: U-87 MG
Oryctolagus cuniculus [13] = organism: Oryctolagus cuniculus; test: Antiplatelet activity in rabbit plasma assessed as inhibition of arachidonic acid induced platelet aggregation at 150 uM by aggregometer analysis relative to control; format: functional; parameters: scale not given: the % may be the effect or the level left
A-375 = test: Antiproliferative activity against human A-375 cells assessed as cell growth inhibition; format: functional, cell-based
HCT-116 = test: Antiproliferative activity against human HCT-116 cells assessed as cell growth inhibition; format: functional, cell-based
Hepatitis B virus [14] = test: Antiviral activity against HBV infected in human HepG2.2.15 cells assessed as reduction in extracellular HBV DNA level; format: functional, organism-based
Hepatitis B virus [15] = test: Antiviral activity against HBV infected in human HepG2.2.15 cells assessed as reduction in intracellular HBV DNA level; format: functional, organism-based
HGC-27 [16] = test: Potency index, ratio of piperlongumine IC50 to compound IC50 for inhibition of TrxR in human HGC-27 cells; format: cell-based
[17] = Inhibition of TrxR in human HGC-27 cells; format: cell-based
HGC-27 [18] = test: Potency index, ratio of piperlongumine IC50 to compound IC50 for antiproliferative activity against human HGC-27 cells; format: functional
PC-12 = test: Neuroprotective activity against H2O2-induced cytotoxicity in rat PC-12 cells assessed as cell survival rate preincubated for 24 hrs followed by H2O2 stimulation and measured after 24 hrs by MTT assay relative to control; format: functional; conditions: time 48 hrs
HCT-8 [19] = test: Antiproliferative activity against human HCT-8 cells assessed as cell growth inhibition in presence of piperlongumine; format: functional, cell-based
MDA-MB-435 [20] = test: Antiproliferative activity against human MDA-MB-435 cells assessed as cell growth inhibition; format: functional, cell-based
SF-295 [21] = test: Antiproliferative activity against human SF-295 cells assessed as cell growth inhibition in presence of piperlongumine; format: functional, cell-based
HL-60 [22] = test: Antiproliferative activity against human HL-60 cells assessed as cell growth inhibition in presence of piperlongumine; format: functional, cell-based
SF-295 [23] = test: Antiproliferative activity against human SF-295 cells assessed as cell growth inhibition; format: functional, cell-based
MDA-MB-435 [24] = test: Antiproliferative activity against human MDA-MB-435 cells assessed as cell growth inhibition in presence of piperlongumine; format: functional, cell-based
MDA-MB-231 [25] = test: Potency index, ratio of piperlongumine IC50 to compound IC50 for inhibition of TrxR in human MDA-MB-231 cells; format: cell-based
MDA-MB-231 [26] = test: Antitumor activity against BALB/c mouse xenografted with human MDA-MB-231 cells assessed as tumor growth inhibition at 25 mg/kg, ip measured after 21 days relative to control; format: functional; conditions: MDA-MB-231, 504 h, time 21 day, read-out: TGI
[27] = Cytotoxicity against mouse RAW264.7 cells assessed as cell growth inhibition; format: toxicity, cell-based
HeLa = test: Antiproliferative activity against human HeLa cells assessed as cell growth inhibition; format: functional, cell-based
NCI-H1703 = test: Antiproliferative activity against human NCI-H1703 cells assessed as cell growth inhibition; format: functional, cell-based

## COc1cc(/C=C/C(=O)N2CCC=C(Cl)C2=O)cc(OC)c1OC
A549
  pIC50: 5.38

## O=C(/C=C/c1ccc2ccccc2n1)N1CCC=C(Cl)C1=O
Oryctolagus cuniculus [1]
  pIC50: 6.97
Oryctolagus cuniculus [2]
  pIC50: 2.50

## O=C1C=CCCN1C(=O)/C=C/c1ccc2ccccc2n1
Oryctolagus cuniculus [1]
  pIC50: 6.89
Oryctolagus cuniculus [2]
  pIC50: 3.39

## COc1cc(/C=C/C(=O)N2CCC=CC2=O)cc(OC)c1OC [PIPLARTINE]
K562
  pIC50: 5.24
MDA-MB-231 [3]
  pIC50: 5.76
[4]
  pIC50: 6.40
NSCLC
  pIC50: 5.04
HL-60 [5]
  pIC50: 5.28
HCT-8 [6]
  pIC50: 5.66
MKN-45
  pIC50: 4.70
MOLT-4
  pIC50: 5.77
[7]
  pIC50: 4.95
MCF7
  pIC50: 4.60
P388
  pIC50: 5.55
Oryctolagus cuniculus [1]
  pIC50: 4.68
8-MG-BA
  pIC50: 5.00
[8]
  pIC50: 5.13
CCRF-CEM
  pIC50: 5.36
PC-3
  pIC50: 5.31
DU-145
  pIC50: 5.47
LN-229
  pIC50: 5.00
Jurkat
  pIC50: 5.28
20S proteasome
  pIC50: 4.82
[9]
  pIC50: 5.82
HT-29
  pIC50: 5.85
Oryctolagus cuniculus [2]
  pIC50: 2.17
HGC-27 [10]
  pIC50: 5.12
KB
  IC50: 5.6 µM
AGS
  pIC50: 4.70
[11]
  pIC50: 5.60
[12]
  pIC50: 5.00
Oryctolagus cuniculus [13]
  Activity: 76.4%
A549
  pIC50: 4.99
A-375
  pIC50: 5.60
HCT-116
  pIC50: 4.86

## CC(=O)Nc1ccc(-c2cc(C)c(=O)n(Cc3ccc(Cl)cc3)n2)cc1
Hepatitis B virus [14]
  pIC50: 5.82
Hepatitis B virus [15]
  pIC50: 5.52

## COCCOCCOc1ccc(/C=C2\CCC=CC2=O)cc1OC
HGC-27 [16]
  Ratio IC50: 12
[17]
  pIC50: 6.82
HGC-27 [10]
  pIC50: 6.12
HGC-27 [18]
  Ratio IC50: 10

## COc1cc(OC)c(/C=C2\CC/C(=C\c3cc(OC)c(OC)c(OC)c3)C2=O)c(OC)c1
PC-12
  Survival: 80%

## O=c1[nH]cc(F)c(=O)[nH]1 [FLUOROURACIL]
HCT-8 [19]
  pIC50: 5.33
MDA-MB-435 [20]
  pIC50: 5.04
HL-60 [5]
  pIC50: 4.07
HCT-8 [6]
  pIC50: 4.95
SF-295 [21]
  pIC50: 6.31
HL-60 [22]
  pIC50: 4.42
SF-295 [23]
  pIC50: 5.63
MDA-MB-435 [24]
  pIC50: 5.71

## O=C(/C=C/c1cnccn1)N1CCC=C(Cl)C1=O
Oryctolagus cuniculus [13]
  Activity: 100%

## C=CC(=O)NC(=O)/C=C/c1cc(OC)c(OC)c(OC)c1
20S proteasome
  pIC50: 5.59

## O=C1C=CCC/C1=C\c1ccc(Oc2ccc(/C=C3\CCC=CC3=O)cc2)cc1
MDA-MB-231 [3]
  pIC50: 6.20
MDA-MB-231 [25]
  Ratio IC50: 10
MDA-MB-231 [26]
  inhibition in vivo at 25 mg/kg: 67%
[9]
  pIC50: 6.80

## COc1cc(/C=C/C(=O)C2CCC=CC2=O)cc(OC)c1OC (configuration not stated)
[27]
  pIC50: 5.22

## COc1cc(/C=C/C(=O)N2CCC=C(C#CC3CC3)C2=O)cc(OC)c1OC
HeLa
  pIC50: 5.89
NCI-H1703
  pIC50: 6.15

## COc1cc(/C=C2\CN(C=O)C/C(=C\c3cc(OC)c(OC)c(OC)c3)C2=O)cc(OC)c1OC
NSCLC
  pIC50: 6.22
